Results reported in PubChem BioAssay AID1963981 (Molecular Pharmacology Branch, DTP, NCI, 2024).

System: 354836-022-R-J1-PDC multicell spheroid viability
Test: Anticancer human tumor 354836-022-R-J1-PDC patient-derived head and neck squamous cell carcinoma cell line growth inhibition [PI3K]
Details: for IC50: curve of first compound; for viability, T/C: stronger effect = lower value
Summary of the method: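 Multi-cell spheroids combine tumor cells with HUVEC and human MSCs, treated with targeted agents alone or with inavolisib, alpelisib, duvelisib or copanlisib. Concentrations fall in half-log steps from at or near clinical Cmax, or from 10 microM where Cmax is unknown; viability read-out.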

[1] = second compound 0.00316 µM, first compound 0.0316 µM
[2] = second compound 0.00316 µM, first compound 0.1 µM
[3] = second compound 0.00316 µM, first compound 0.316 µM
[4] = second compound 0.00316 µM, first compound 1 µM
[5] = second compound 0.00316 µM, first compound 3.16 µM
[6] = second compound 0.00316 µM, first compound 10 µM
[7] = second compound 0.01 µM, first compound 0.0316 µM
[8] = second compound 0.01 µM, first compound 0.1 µM
[9] = second compound 0.01 µM, first compound 0.316 µM
[10] = second compound 0.01 µM, first compound 1 µM
[11] = second compound 0.01 µM, first compound 3.16 µM
[12] = second compound 0.01 µM, first compound 10 µM
[13] = second compound 0.0316 µM, first compound 0.0316 µM
[14] = second compound 0.0316 µM, first compound 0.1 µM
[15] = second compound 0.0316 µM, first compound 0.316 µM
[16] = second compound 0.0316 µM, first compound 1 µM
[17] = second compound 0.0316 µM, first compound 3.16 µM
[18] = second compound 0.0316 µM, first compound 10 µM
[19] = second compound 0.1 µM, first compound 0.0316 µM
[20] = second compound 0.1 µM, first compound 0.1 µM
[21] = second compound 0.1 µM, first compound 0.316 µM
[22] = second compound 0.1 µM, first compound 1 µM
[23] = second compound 0.1 µM, first compound 3.16 µM
[24] = second compound 0.1 µM, first compound 10 µM
[25] = second compound 0.316 µM, first compound 0.0316 µM
[26] = second compound 0.316 µM, first compound 0.1 µM
[27] = second compound 0.316 µM, first compound 0.316 µM
[28] = second compound 0.316 µM, first compound 1 µM
[29] = second compound 0.316 µM, first compound 3.16 µM
[30] = second compound 0.316 µM, first compound 10 µM
[31] = second compound 1 µM, first compound 0.0316 µM
[32] = second compound 1 µM, first compound 0.1 µM
[33] = second compound 1 µM, first compound 0.316 µM
[34] = second compound 1 µM, first compound 1 µM
[35] = second compound 1 µM, first compound 3.16 µM
[36] = second compound 1 µM, first compound 10 µM
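Also: spheroids exposed to agents for seven days before the viability read.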

Question: What does the source list for `C=CC(=O)N1CCN(c2nc(=O)n(-c3c(C)ccnc3C(C)C)c3nc(-c4c(O)cccc4F)c(F)cc23)C(C)C1` (stereo unspecified) + COc1c(OCCCN2CCOCC2)ccc2c3n(c(=NC(=O)c4cnc(N)nc4)nc12)CCN3?
Answer: IC50 (second compound 0.00316 µM): > 10 µM; IC50 (second compound 0.01 µM): > 10 µM; IC50 (second compound 0.0316 µM): > 10 µM; IC50 (second compound 0.1 µM): > 10 µM; IC50 (second compound 0.316 µM): < 0.0316 µM; IC50 (second compound 1 µM): < 0.0316 µM; viability, T/C [1]: 96.3%; viability, T/C [2]: 106%; viability, T/C [3]: 109%; viability, T/C [4]: 108%; viability, T/C [5]: 118%; viability, T/C [6]: 116%; viability, T/C [7]: 97.7%; viability, T/C [8]: 99%; viability, T/C [9]: 98.5%; viability, T/C [10]: 102%; viability, T/C [11]: 105%; viability, T/C [12]: 90.4%; viability, T/C [13]: 83.2%; viability, T/C [14]: 83.5%; viability, T/C [15]: 72%; viability, T/C [16]: 82.6%; viability, T/C [17]: 110%; viability, T/C [18]: 95.4%; viability, T/C [19]: 61.4%; viability, T/C [20]: 45.3%; viability, T/C [21]: 59.2%; viability, T/C [22]: 62.8%; viability, T/C [23]: 61.5%; viability, T/C [24]: 55.6%; viability, T/C [25]: 14.3%; viability, T/C [26]: 16.2%; viability, T/C [27]: 16.2%; viability, T/C [28]: 18.4%; viability, T/C [29]: 25.9%; viability, T/C [30]: 13%; viability, T/C [31]: 1.79%; viability, T/C [32]: 1.75%; viability, T/C [33]: 1.72%; viability, T/C [34]: 2.49%; viability, T/C [35]: 1.82%; viability, T/C [36]: 1.3%

Question: Which results are given for `CC(Cn1ccc(-c2ccc(C#N)c(Cl)c2)n1)NC(=O)c1cc(C(C)O)[nH]n1` (stereo unspecified) + COc1c(OCCCN2CCOCC2)ccc2c3n(c(=NC(=O)c4cnc(N)nc4)nc12)CCN3?
Answer: IC50 (second compound 0.00316 µM): > 10 µM; IC50 (second compound 0.01 µM): > 10 µM; IC50 (second compound 0.0316 µM): > 10 µM; IC50 (second compound 0.1 µM): < 0.0316 µM; IC50 (second compound 0.316 µM): < 0.0316 µM; IC50 (second compound 1 µM): < 0.0316 µM; viability, T/C [1]: 119%; viability, T/C [2]: 99.5%; viability, T/C [3]: 106%; viability, T/C [4]: 104%; viability, T/C [5]: 102%; viability, T/C [6]: 86.3%; viability, T/C [7]: 98.8%; viability, T/C [8]: 104%; viability, T/C [9]: 92.5%; viability, T/C [10]: 113%; viability, T/C [11]: 105%; viability, T/C [12]: 80%; viability, T/C [13]: 69.6%; viability, T/C [14]: 82.7%; viability, T/C [15]: 85.2%; viability, T/C [16]: 86.9%; viability, T/C [17]: 88.5%; viability, T/C [18]: 67.5%; viability, T/C [19]: 48.4%; viability, T/C [20]: 52.5%; viability, T/C [21]: 52%; viability, T/C [22]: 57.1%; viability, T/C [23]: 58.1%; viability, T/C [24]: 51.9%; viability, T/C [25]: 11.8%; viability, T/C [26]: 18.3%; viability, T/C [27]: 15.1%; viability, T/C [28]: 20.9%; viability, T/C [29]: 15.2%; viability, T/C [30]: 18.2%; viability, T/C [31]: 2.74%; viability, T/C [32]: 1.7%; viability, T/C [33]: 1.89%; viability, T/C [34]: 2.26%; viability, T/C [35]: 2.15%; viability, T/C [36]: 2.19%

Question: Which IC50 (second compound 0.00316 µM) does the source give for `Cn1nccc1Nc1nccc(-c2ccn(C(CO)c3ccc(Cl)c(F)c3)c(=O)c2)n1` (stereo unspecified) + COc1c(OCCCN2CCOCC2)ccc2c3n(c(=NC(=O)c4cnc(N)nc4)nc12)CCN3 here?
Answer: The IC50 was greater than 10 µM.

Question: And the IC50 (second compound 0.01 µM)?
Answer: Its IC50 is greater than 10 µM.

Question: What about the IC50 (second compound 0.0316 µM) of the same compound?
Answer: Its IC50 is greater than 10 µM.

Question: What about the IC50 (second compound 0.1 µM) of the same compound?
Answer: Its IC50 is 0.0736 µM.

Question: What about the IC50 (second compound 0.316 µM) of the same compound?
Answer: Its IC50 is less than 0.0316 µM.

Question: And the IC50 (second compound 1 µM)?
Answer: Its IC50 is less than 0.0316 µM.

Question: And the viability, T/C [1]?
Answer: The viability, T/C was 97%.

Question: And the viability, T/C [2]?
Answer: Its viability, T/C is 98.1%.

Question: And the viability, T/C [3]?
Answer: Its viability, T/C is 94.2%.

Question: What about the viability, T/C [4] of the same compound?
Answer: The viability, T/C was 89.3%.

Question: And the viability, T/C [5]?
Answer: The viability, T/C was 92.1%.

Question: And the viability, T/C [6]?
Answer: The viability, T/C was 82.7%.

Question: What about the viability, T/C [7] of the same compound?
Answer: Its viability, T/C is 88.5%.

Question: What about the viability, T/C [8] of the same compound?
Answer: The viability, T/C was 99%.

Question: And the viability, T/C [9]?
Answer: The viability, T/C was 88%.

Question: What about the viability, T/C [10] of the same compound?
Answer: The viability, T/C was 94%.

Question: And the viability, T/C [11]?
Answer: Its viability, T/C is 91.9%.

Question: And the viability, T/C [12]?
Answer: Its viability, T/C is 97.6%.

Question: What about the viability, T/C [13] of the same compound?
Answer: The viability, T/C was 83.4%.

Question: What about the viability, T/C [14] of the same compound?
Answer: Its viability, T/C is 69.7%.

Question: What about the viability, T/C [15] of the same compound?
Answer: Its viability, T/C is 76%.

Question: What about the viability, T/C [16] of the same compound?
Answer: Its viability, T/C is 84.7%.

Question: And the viability, T/C [17]?
Answer: The viability, T/C was 87.2%.

Question: What about the viability, T/C [18] of the same compound?
Answer: Its viability, T/C is 64.2%.

Question: And the viability, T/C [19]?
Answer: Its viability, T/C is 49.1%.

Question: And the viability, T/C [20]?
Answer: Its viability, T/C is 49.2%.

Question: And the viability, T/C [21]?
Answer: The viability, T/C was 46.9%.

Question: What about the viability, T/C [22] of the same compound?
Answer: Its viability, T/C is 49.6%.

Question: And the viability, T/C [23]?
Answer: The viability, T/C was 44.8%.

Question: And the viability, T/C [24]?
Answer: The viability, T/C was 32.2%.

Question: And the viability, T/C [25]?
Answer: Its viability, T/C is 11.8%.

Question: And the viability, T/C [26]?
Answer: The viability, T/C was 11.1%.

Question: And the viability, T/C [27]?
Answer: Its viability, T/C is 11.1%.

Question: And the viability, T/C [28]?
Answer: The viability, T/C was 11.4%.

Question: What about the viability, T/C [29] of the same compound?
Answer: The viability, T/C was 6.95%.

Question: And the viability, T/C [30]?
Answer: Its viability, T/C is 2.26%.

Question: And the viability, T/C [31]?
Answer: Its viability, T/C is 1.52%.

Question: What about the viability, T/C [32] of the same compound?
Answer: Its viability, T/C is 1.16%.

Question: What about the viability, T/C [33] of the same compound?
Answer: Its viability, T/C is 1.02%.

Question: And the viability, T/C [34]?
Answer: Its viability, T/C is 1.12%.

Question: And the viability, T/C [35]?
Answer: The viability, T/C was 1.77%.

Question: What about the viability, T/C [36] of the same compound?
Answer: Its viability, T/C is 0.33%.
